This is an account of results in patent US20060134217A1, “Leukotriene and integrin inhibitor combination and treatment method” (priority 2004, published 2006).

Marks after values point to notes of the source that are not given here.

Data set [1] deals with mild and moderate asthmatics. The settings on record: cited from earlier work.
Data set [2] concerns stable asthmatic adults maintained on inhaled corticosteroids. The settings on record: cited from earlier work.
Data set [3] has as its system mild/moderate asthmatics not treated with inhaled corticosteroids. Description: ARES study: R411 monotherapy, 12 week treatment period. It is filed as in vivo, human. The following applies: for % Asthma exacerbation / Asthma control Questionnaire (Total Score), change from baseline / Morning asthma symptoms, change from baseline / Nocturnal awakenings (scores), change from baseline / Rescue β 2-agonist use (puffs/d), change from baseline: 12 weeks, ITT population. As to the method:
The ARES study illustrated in FIG. 4 was designed to evaluate the safety and efficacy of monotherapy R411 over a 12 week treatment period in 480 mild/moderate asthmatics not treated with inhaled corticosteroids. Patients were randomized to one of four cohorts: 50, 200, 600 mg QD R411, or placebo (n=120/group). The primary endpoint in the study was change in FEV1 from baseline, and secondary endpoints included PEFR, asthma exacerbations, β2-agonist use, asthma control questionnaire, asthma symptom scores, and nocturnal awakenings.
ARES study evaluated the safety and efficacy of monotherapy with R411 over a 12-week treatment period in 479 mild/moderate asthmatics not treated with inhaled corticosteroids. Patients were randomized to one of four cohorts: 50, 200, 600 mg once daily R411, or placebo.

In data set [4] the test system is key inflammatory cells. Put plainly: Migration of inflammatory cells from blood into lungs. The following applies: in vivo.
In data set [5] the test system is α4/β1 and α4/β7 integrins. Description: Integrin selectivity.
The test system of data set [6] is atopic primate. Put plainly: Airway inflammation in the atopic primate, oral R411. It is filed as in vivo. The settings on record: oral administration, FIG. 6.
The target in data set [7] is α4/β1 to vascular cell adhesion molecule (VCAM-1) (Homo sapiens, UniProt P05556+P13612). Put plainly: Inhibition of α4/β1 binding to VCAM-1. An excerpt: (§1) R411 inhibits the binding of α4/β1 to vascular cell adhesion molecule (VCAM-1) and α4/β7 to MadCAM-1 by […]. R411 is disclosed in U.S. Pat. No. 6,229,011, which disclosure is incorporated by reference herein.

The text on data set [8]: The pharmaceutical dosage forms may also be formulated to provide a chronobiological synergy of the two compounds.
The target of data set [9] is T1, α4 (Homo sapiens, UniProt P13612).
T1 sequence (P13612 34-1032): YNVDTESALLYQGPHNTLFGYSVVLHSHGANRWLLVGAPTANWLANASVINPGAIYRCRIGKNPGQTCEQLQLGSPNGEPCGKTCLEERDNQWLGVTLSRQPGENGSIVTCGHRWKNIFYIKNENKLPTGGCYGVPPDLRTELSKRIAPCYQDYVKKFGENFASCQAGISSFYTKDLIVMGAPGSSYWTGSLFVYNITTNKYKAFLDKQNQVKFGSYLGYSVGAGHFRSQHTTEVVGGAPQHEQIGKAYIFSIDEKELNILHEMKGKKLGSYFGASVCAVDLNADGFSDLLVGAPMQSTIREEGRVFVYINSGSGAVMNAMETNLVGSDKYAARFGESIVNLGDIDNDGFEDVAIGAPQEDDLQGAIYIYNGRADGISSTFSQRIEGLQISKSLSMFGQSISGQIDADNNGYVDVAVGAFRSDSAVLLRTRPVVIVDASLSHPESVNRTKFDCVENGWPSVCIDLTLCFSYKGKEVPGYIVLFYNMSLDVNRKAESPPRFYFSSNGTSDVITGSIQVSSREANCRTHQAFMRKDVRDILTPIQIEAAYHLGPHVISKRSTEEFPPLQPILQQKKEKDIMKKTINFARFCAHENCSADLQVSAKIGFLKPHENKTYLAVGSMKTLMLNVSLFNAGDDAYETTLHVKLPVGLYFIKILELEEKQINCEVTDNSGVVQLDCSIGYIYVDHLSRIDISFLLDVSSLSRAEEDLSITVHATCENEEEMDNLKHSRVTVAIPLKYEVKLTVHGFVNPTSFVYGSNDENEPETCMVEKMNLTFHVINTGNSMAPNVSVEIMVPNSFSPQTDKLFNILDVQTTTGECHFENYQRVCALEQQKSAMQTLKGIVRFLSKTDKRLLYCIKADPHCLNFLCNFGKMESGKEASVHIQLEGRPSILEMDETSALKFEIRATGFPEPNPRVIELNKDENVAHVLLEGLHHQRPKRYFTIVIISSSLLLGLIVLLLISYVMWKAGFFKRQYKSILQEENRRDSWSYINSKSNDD
Description: In vitro binding to α4 integrin.

For data set [10], the target named is T2, α4/β7 to MadCAM-1 (Homo sapiens, UniProt P13612+P26010).
T2 sequence (P13612 34-1032): T1 sequence (P13612 34-1032)
T2 sequence (P26010 20-798): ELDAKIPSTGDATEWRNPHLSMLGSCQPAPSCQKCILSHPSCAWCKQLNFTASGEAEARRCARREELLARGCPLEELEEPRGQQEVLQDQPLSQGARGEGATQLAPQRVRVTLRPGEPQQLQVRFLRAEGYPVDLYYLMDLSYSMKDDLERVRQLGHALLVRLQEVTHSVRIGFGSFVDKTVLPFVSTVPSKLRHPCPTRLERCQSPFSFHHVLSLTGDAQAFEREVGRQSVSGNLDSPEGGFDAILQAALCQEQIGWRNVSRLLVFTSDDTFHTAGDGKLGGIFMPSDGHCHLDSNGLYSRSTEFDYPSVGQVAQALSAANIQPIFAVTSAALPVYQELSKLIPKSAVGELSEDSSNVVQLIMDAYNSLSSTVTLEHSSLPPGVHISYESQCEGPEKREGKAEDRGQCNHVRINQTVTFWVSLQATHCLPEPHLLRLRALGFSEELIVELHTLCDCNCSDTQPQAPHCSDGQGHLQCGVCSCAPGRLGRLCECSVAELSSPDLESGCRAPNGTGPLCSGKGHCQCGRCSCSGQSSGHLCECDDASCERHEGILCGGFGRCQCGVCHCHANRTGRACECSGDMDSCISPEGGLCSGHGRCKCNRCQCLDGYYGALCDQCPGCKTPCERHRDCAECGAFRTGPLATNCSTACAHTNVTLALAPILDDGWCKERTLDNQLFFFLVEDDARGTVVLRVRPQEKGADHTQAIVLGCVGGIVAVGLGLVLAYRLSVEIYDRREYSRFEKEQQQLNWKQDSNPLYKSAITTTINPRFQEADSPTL
Description: Inhibition of α4/β7 binding to MadCAM-1.
From the text: as §1

The subject of data set [11] is persistent asthmatics on low to medium inhaled corticosteroids. Description: Phase II add-on of R411 to inhaled corticosteroids (MARS study). It is filed as in vivo, human. The following applies: added to moderate dose inhaled corticosteroids, subpopulation with less well controlled asthma. An excerpt: As set out above, a second component in the solid pharmaceutical dosage form comprises a therapeutically effective amount of R411 (N-(2-chloro-6-methylbenzoyl)-4-[(2,6-dichlorobenzoyl)amino]-L-phenylalanine-2-(diethylamino)ethyl ester), or a pharmaceutically acceptable salt thereof. […] The MARS study illustrated in FIG. 3 was designed to evaluate the safety and efficacy of R411 over a 12 week treatment period in 350 persistent asthmatics being treated with a stable dose of low to medium inhaled corticosteroids and inhaled short acting […]. Patients were randomized to one of five cohorts: 50, 200, 600 mg once daily (QD) or 300 mg twice daily (BID) R411, or placebo (n=70/group). After a 2-week placebo run-in period and subsequent 2-week add-on period (R411 or placebo), morning inhaled corticosteroids were removed. Two weeks later, evening inhaled corticosteroids were removed, and patients remained in the treatment period for an additional 8 weeks. The primary endpoint in the study was the percentage change in FEV1 from baseline, and secondary endpoint included PEFR, asthma exacerbations, β2-agonist use, asthma control questionnaire, asthma symptom scores, nocturnal awakenings, FEF25-75 and rate of asthma treatment failures.

Where [12] appears, read: 50, 200, 600 mg once daily vs placebo.

Chain of α4/β1 to vascular cell adhesion molecule (VCAM-1) (P05556 21-798, one chain of several): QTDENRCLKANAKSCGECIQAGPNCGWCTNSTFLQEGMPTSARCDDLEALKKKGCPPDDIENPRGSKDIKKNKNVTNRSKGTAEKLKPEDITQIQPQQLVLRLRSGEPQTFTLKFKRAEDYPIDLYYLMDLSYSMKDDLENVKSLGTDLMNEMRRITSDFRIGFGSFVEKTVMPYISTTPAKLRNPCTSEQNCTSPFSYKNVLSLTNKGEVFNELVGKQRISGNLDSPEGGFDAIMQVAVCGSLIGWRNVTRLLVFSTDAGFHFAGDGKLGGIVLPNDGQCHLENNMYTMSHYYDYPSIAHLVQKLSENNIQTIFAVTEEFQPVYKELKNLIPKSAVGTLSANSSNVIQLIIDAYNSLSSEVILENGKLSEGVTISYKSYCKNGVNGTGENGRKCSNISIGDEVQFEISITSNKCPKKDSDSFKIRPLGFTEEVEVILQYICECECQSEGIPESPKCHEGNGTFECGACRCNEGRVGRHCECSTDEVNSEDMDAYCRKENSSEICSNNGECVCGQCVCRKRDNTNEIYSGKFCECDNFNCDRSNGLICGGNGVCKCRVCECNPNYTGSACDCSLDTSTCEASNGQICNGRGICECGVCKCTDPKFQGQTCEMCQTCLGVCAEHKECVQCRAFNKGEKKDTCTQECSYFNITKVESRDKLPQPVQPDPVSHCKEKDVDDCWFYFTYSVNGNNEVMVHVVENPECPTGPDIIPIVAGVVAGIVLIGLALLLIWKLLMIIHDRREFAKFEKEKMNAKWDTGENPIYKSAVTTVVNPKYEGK

Take `CC(C)(O)c1ccccc1CC[C@@H](SCC1(CC(=O)[O-])CC1)c1cccc(/C=C/c2ccc3ccc(Cl)cc3n2)c1.[Na+]` [montelukast, [R-(E)]-1-[[[1-[3-[2-(7-chloro-2-quinolinyl)ethenyl]phenyl]-3-[2-(1-hydroxy-1-methylethyl)phenyl]propyl]thio]methyl]cyclopropaneacetic acid, monosodium salt]: in [1] (adult patients, placebo 4.6%), the “reduction of "as-needed" (beta)-agonist use from baseline” value is given as 26.1%. For the same compound, the “reduction of nocturnal awakenings from baseline” value in data set [1] (patients with nocturnal awakenings of at least 2 nights per week, combined analysis, placebo 15%) is 34%. Also, in data set [2] (12-week active treatment period, placebo 30%), the “reduction in mean inhaled corticosteroid dose” value is listed as 47%. The “patients successfully tapered off inhaled corticosteroids” value in data set [2] (at conclusion of study, placebo 29%, p=NS) is reported as “Approximately 40%”.
For the compound `CCN(CC)CCOC(=O)[C@H](Cc1ccc(NC(=O)c2c(Cl)cccc2Cl)cc1)NC(=O)c1c(C)cccc1Cl` [R411, N-(2-Chloro-6-methylbenzoyl)-4-[(2,6-dichlorobenzoyl)amino]-L-phenylalanine-2-(diethylamino)ethyl ester], in data set [3] (200 mg once daily), the “% Asthma exacerbation” value was found to be 25.6%; the “Asthma control Questionnaire (Total Score), change from baseline” value is −0.29 [2.08]; the “Morning asthma symptoms, change from baseline” value was −0.34* [1.55]; the “Nocturnal awakenings (scores), change from baseline” value is −0.15*/[0.61] scores. The “Rescue β 2-agonist use (puffs/d), change from baseline” value in data set [3] (200 mg once daily) is −0.36/[3.04] puffs/d. For the same compound, in [3] (600 mg once daily), the “% Asthma exacerbation” value is 26.10%; the “Asthma control Questionnaire (Total Score), change from baseline” value was −0.23 [2.00]; the “Morning asthma symptoms, change from baseline” value is −0.33* [1.57]; the “Nocturnal awakenings (scores), change from baseline” value is −0.12*/[0.58] scores. Also, the “Rescue β 2-agonist use (puffs/d), change from baseline” value in [3] (600 mg once daily) is −0.41*/[3.11] puffs/d. Further, in data set [3] (setting [12]), the “decrease in daytime asthma and nocturnal symptom score” value is “Statistically significant improvements”; the “reducing rescue albuterol use” value was “Statistically significant improvements”. In addition, the “Asthma Control Questionnaire Scores and Asthma Quality-of-Life” value in data set [3] (compared to placebo) was “Improvement”. Further, in data set [3] (monotherapy, FIG. 4), the “small airway flow rates as measured by FEF25-75” value is reported as “significant effect”. Also, the “reduction in asthma exacerbations” value in data set [3] (two highest doses of 200 and 600 mg) is 26%. Also, the “migration of key inflammatory cells from the blood into the lungs” value in data set [4] is reported as “block the migration”. Also, in data set [5], the integrin selectivity entry was “effective against both α4/β1 and α4/β7 integrins”. The airway inflammation result in [6] is “attenuates airway inflammation”. In [7], the “inhibition of binding of α4/β1 to VCAM-1” value is reported as “inhibits”. Besides, in [8], the acid/base character entry is “weak base” and the “solubility along the gastrointestinal tract” value is given as “higher solubility in the upper part of the gastrointestinal tract”. Also, in [9] (activated α4), the binding affinity result is “high affinity” and the dissociation result is “slow dissociation”. In [9] (receptor not activated), the dissociation entry is reported as “more rapid” and the “in vitro binding affinity” value is “lower”. For the same compound, the “inhibition of binding of α4/β7 to MadCAM-1” value in data set [10] is recorded as “inhibits”. Further, the “large airway flow rates as measured by FEV1” value in [11] (FIG. 2) is on record as “additive effect”. Besides, the “small airway flow rates measured by FEF25-75” value in data set [11] (FIG. 3) is “additive effect”.
